Assay results from ChEMBL document CHEMBL4017483, “Potent and selective oxytocin receptor agonists without disulfide bridges” (Bioorg Med Chem Lett, 2017).
pEC50: −log10 of the molar value. Bridge positions count the residues as written; N and C are the ends. Square brackets hold non-standard residues; d marks the D form. Peptide text beside a SMILES is read from it. NMeS = CN[C@@H](CO)C(=O)O; NMeA = CN[C@@H](C)C(=O)O; βAla = NCCC(=O)O; Mpa = O=C(O)CCS; Sar = CNCC(=O)O

Key:
Homo sapiens [1] = species: Homo sapiens; test: Selectivity ratio of EC50 for human V1b receptor to EC50 for human OTR
Oxytocin receptor = biological target: T1, Oxytocin receptor (Homo sapiens, UniProt P30559); test: Agonist activity at human OTR expressed in CHO cells assessed as calcium mobilization measured after 30 mins by Fluo-4-AM dye based FLIPR assay; assay type: functional, cell-based
T1 sequence (P30559 whole entry): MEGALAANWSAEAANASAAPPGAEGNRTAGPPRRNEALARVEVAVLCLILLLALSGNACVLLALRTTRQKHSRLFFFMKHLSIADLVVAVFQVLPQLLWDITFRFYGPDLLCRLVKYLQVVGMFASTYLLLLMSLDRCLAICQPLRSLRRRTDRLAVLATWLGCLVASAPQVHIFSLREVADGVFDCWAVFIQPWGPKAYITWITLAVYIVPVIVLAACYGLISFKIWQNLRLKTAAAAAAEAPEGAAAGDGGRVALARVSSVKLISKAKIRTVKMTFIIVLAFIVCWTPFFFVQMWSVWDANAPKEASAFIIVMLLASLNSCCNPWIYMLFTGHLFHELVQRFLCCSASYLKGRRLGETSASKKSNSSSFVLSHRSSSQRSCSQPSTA

Vasopressin V1a receptor = Vasopressin V1a receptor (Homo sapiens, UniProt P37288); test: Agonist activity at human V1a receptor expressed in CHO cells assessed as calcium mobilization measured after 30 mins by Fluo-4-AM dye based FLIPR assay; assay type: cell-based
Vasopressin V1b receptor = biological target: T2, Vasopressin V1b receptor (Homo sapiens, UniProt P47901); test: Agonist activity at human V1b receptor expressed in CHO cells assessed as calcium mobilization measured after 30 mins by Fluo-4-AM dye based FLIPR assay; assay type: cell-based
T2 sequence (P47901 whole entry): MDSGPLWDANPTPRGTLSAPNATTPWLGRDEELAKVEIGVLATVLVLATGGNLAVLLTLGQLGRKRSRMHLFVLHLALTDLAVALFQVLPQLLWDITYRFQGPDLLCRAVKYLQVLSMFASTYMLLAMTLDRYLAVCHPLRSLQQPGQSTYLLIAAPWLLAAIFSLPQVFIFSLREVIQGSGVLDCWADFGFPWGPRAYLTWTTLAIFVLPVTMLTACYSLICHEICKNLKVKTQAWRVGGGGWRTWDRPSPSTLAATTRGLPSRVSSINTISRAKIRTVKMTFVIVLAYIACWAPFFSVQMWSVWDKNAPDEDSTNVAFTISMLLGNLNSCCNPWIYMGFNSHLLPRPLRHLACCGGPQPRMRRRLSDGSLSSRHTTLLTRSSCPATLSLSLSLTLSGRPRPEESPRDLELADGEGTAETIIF

Homo sapiens [2] = species: Homo sapiens; test: Selectivity ratio of EC50 for human V1a receptor to EC50 for human OTR

Vasopressin V1a receptor, sequence (P37288 whole entry): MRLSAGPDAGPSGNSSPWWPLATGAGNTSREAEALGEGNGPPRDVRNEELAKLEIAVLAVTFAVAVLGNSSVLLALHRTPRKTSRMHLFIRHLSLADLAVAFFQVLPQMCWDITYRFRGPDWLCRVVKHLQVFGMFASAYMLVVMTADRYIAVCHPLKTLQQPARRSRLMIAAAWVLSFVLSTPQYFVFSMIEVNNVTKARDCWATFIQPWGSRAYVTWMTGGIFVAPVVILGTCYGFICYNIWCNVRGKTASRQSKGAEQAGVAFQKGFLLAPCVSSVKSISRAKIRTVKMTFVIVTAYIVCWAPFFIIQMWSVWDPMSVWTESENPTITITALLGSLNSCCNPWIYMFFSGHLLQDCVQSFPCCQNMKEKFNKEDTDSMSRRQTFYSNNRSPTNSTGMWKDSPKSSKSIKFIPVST

SMILES | Ratio EC50 (Homo sapiens [1]) | pEC50 (Oxytocin receptor) | pEC50 (Vasopressin V1a receptor) | pEC50 (Vasopressin V1b receptor) | Ratio EC50 (Homo sapiens [2])
CC[C@H](C)[C@@H]1NC(=O)[C@H](Cc2ccc(O)cc2)NC(=O)CCSSC[C@@H](C(=O)N2CCC[C@H]2C(=O)N[C@@H](CO)C(=O)NCC(N)=O)NC(=O)[C@H](CC(N)=O)NC(=O)[C@H](CCC(N)=O)NC1=O ([Mpa]YIQNCPSG-NH2; disulfide 1-6) | 12 | 10.25 | < 7.00 | 9.19 | > 1000
CC[C@H](C)[C@@H]1NC(=O)[C@H](Cc2ccc(O)cc2)NC(=O)CCSSC[C@@H](C(=O)N2CCC[C@H]2C(=O)N[C@H](C(=O)NCC(N)=O)C(C)C)NC(=O)[C@H](CC(N)=O)NC(=O)[C@H](CCC(N)=O)NC1=O ([Mpa]YIQNCPVG-NH2; disulfide 1-6) | 93 | 10.85 | 8.29 | 8.89 | 360
CC[C@H](C)[C@@H]1NC(=O)[C@H](Cc2ccc(O)cc2)NC(=O)CCSSC[C@@H](C(=O)N[C@@H](CCCNC(=N)N)C(=O)N[C@@H](CC(C)C)C(=O)NCC(N)=O)NC(=O)[C@H](CC(N)=O)NC(=O)[C@H](CCC(N)=O)NC1=O ([Mpa]YIQNCRLG-NH2; disulfide 1-6) | > 10 | 8.82 | < 7.00 | < 7.00 | > 10
CC[C@H](C)[C@@H]1NC(=O)[C@H](Cc2ccc(O)cc2)NC(=O)CCSSC[C@@H](C(=O)N[C@@H](CO)C(=O)N[C@@H](CC(C)C)C(=O)NCC(N)=O)NC(=O)[C@H](CC(N)=O)NC(=O)[C@H](CCC(N)=O)NC1=O ([Mpa]YIQNCSLG-NH2; disulfide 1-6) | > 1000 | 10.09 | < 7.00 | < 7.00 | > 1000
CC[C@H](C)[C@@H]1NC(=O)[C@H](Cc2ccc(O)cc2)NC(=O)CCSSC[C@@H](C(=O)N(C)[C@@H](C)C(=O)N[C@@H](CC(C)C)C(=O)NCC(N)=O)NC(=O)[C@H](CC(N)=O)NC(=O)[C@H](CCC(N)=O)NC1=O ([Mpa]YIQNC[NMeA]LG-NH2; disulfide 1-6) | > 100 | 9.96 | < 7.00 | < 7.00 | > 100
CC[C@H](C)[C@@H]1NC(=O)[C@H](Cc2ccc(O)cc2)NC(=O)CCSSC[C@@H](C(=O)N(C)[C@@H](CO)C(=O)N[C@@H](CC(C)C)C(=O)NCC(N)=O)NC(=O)[C@H](CC(N)=O)NC(=O)[C@H](CCC(N)=O)NC1=O ([Mpa]YIQNC[NMeS]LG-NH2; disulfide 1-6) | > 1000 | 10.38 | < 7.00 | < 7.00 | > 1000
CC[C@H](C)[C@@H]1NC(=O)[C@H](Cc2ccc(O)cc2)NC(=O)CCSSC[C@@H](C(=O)N(C)CC(=O)N[C@@H](CC(C)C)C(=O)NCC(N)=O)NC(=O)[C@H](CC(N)=O)NC(=O)[C@H](CCC(N)=O)NC1=O ([Mpa]YIQNC[Sar]LG-NH2; disulfide 1-6) | > 10000 | 11.16 | < 7.00 | < 7.00 | > 10000
CC[C@H](C)[C@@H]1NC(=O)[C@H](Cc2ccc(O)cc2)NC(=O)CCSSC[C@@H](C(=O)N2CCC[C@H]2C(=O)N[C@@H](CC(C)C)C(=O)NCC(N)=O)NC(=O)[C@H](CO)NC(=O)[C@H](CCC(N)=O)NC1=O ([Mpa]YIQSCPLG-NH2; disulfide 1-6) | > 8 | 7.92 | < 7.00 | < 7.00 | > 8
CC[C@H](C)[C@@H]1NC(=O)[C@H](Cc2ccc(O)cc2)NC(=O)CCSSC[C@@H](C(=O)N2CCC[C@H]2C(=O)N[C@@H](CC(C)C)C(=O)NCC(N)=O)NC(=O)[C@H](CC(N)=O)NC(=O)[C@H](CCCNC(=N)N)NC1=O ([Mpa]YIRNCPLG-NH2; disulfide 1-6) | 7.5 | 8.92 | < 7.00 | 8.05 | > 10
CC[C@H](C)[C@@H]1NC(=O)[C@H](Cc2ccc(O)cc2)NC(=O)CCSSC[C@@H](C(=O)N2CCC[C@H]2C(=O)N[C@@H](CC(C)C)C(=O)NCC(N)=O)NC(=O)[C@H](CC(N)=O)NC(=O)[C@H](CO)NC1=O ([Mpa]YISNCPLG-NH2; disulfide 1-6) | 120 | 10.14 | < 7.00 | 8.05 | > 1000
CC(C)C[C@@H]1NC(=O)[C@H](Cc2ccc(O)cc2)NC(=O)CCSSC[C@@H](C(=O)N2CCC[C@H]2C(=O)N[C@@H](CC(C)C)C(=O)NCC(N)=O)NC(=O)[C@H](CC(N)=O)NC(=O)[C@H](CCC(N)=O)NC1=O ([Mpa]YLQNCPLG-NH2; disulfide 1-6) | 21 | 9.72 | < 7.00 | 8.41 | > 100
CC(C)C[C@H](NC(=O)[C@@H]1CCCN1C(=O)[C@@H]1CSSCCC(=O)N[C@@H](Cc2ccc(O)cc2)C(=O)N[C@@H](CO)C(=O)N[C@@H](CCC(N)=O)C(=O)N[C@@H](CC(N)=O)C(=O)N1)C(=O)NCC(N)=O ([Mpa]YSQNCPLG-NH2; disulfide 1-6) | > 2 | 7.40 | < 7.00 | < 7.00 | > 2
CC[C@H](C)[C@@H]1NC(=O)[C@H](Cc2ccc(O)cc2)NC(=O)CCNC(=O)C[C@@H](C(=O)N2CCC[C@H]2C(=O)N[C@@H](CC(C)C)C(=O)NCC(N)=O)NC(=O)[C@H](CC(N)=O)NC(=O)[C@H](CCC(N)=O)NC1=O ([βAla]YIQNDPLG-NH2; lactam N-6) | > 7.7 | 7.89 | < 7.00 | < 7.00 | > 7.7
